{
  "source": "patent EP0295827A2",
  "about": "“Use of 24,25-dihydroxy-cholecalciferol in mending bone fractures” (priority 1987, dated 1988)",
  "test": "Acute toxicity, single oral administration",
  "settings": "mouse, in vivo, ICR male mice, read-out: LD₅₀ value",
  "method": "24,25-(OH)₂-D₃ in ethanol was dissolved in a triglyceride ester of a middle fatty acid so as to have an ethanol concentration of 2 %. The thus-prepared solution was orally administered to 10 ICR male mice (weight: 25 ± 3g). The dosage of 24,25-(OH)₂-D₃ was 100 mg/kg. […] When they were subjected to the biochemical blood test, anatomical examination and pathological histology after they were killed, there was no difference between the treated mice and a controlled group of mice to which only a triglyceride ester of a middle fatty acid containing 2% ethanol had been administered. Since the LD₅₀ value of the oral administration of 24,25-(OH)₂-D₃ was not less than 100 mg/kg, 24,25-(OH)₂-D₃ can be said to be very safe.",
  "data": [
    {"compound": "C=C1CCC(O)CC1=CC=C1CCCC2(C)C1CCC2C(C)CCC(O)C(C)(C)O", "note": "(stereo not shown) [24,25-(OH)₂-D₃, 24,25-dihydroxycholecalciferol]", "values": [
      {"measurement": "LD50 at 336 h", "result": "≥ 100", "unit": "mg/kg"}
    ]}
  ]
}
